Entries after “also recorded” stand apart in the source; their conditions may differ. Read-outs that look alike come from different tables or passages of the source.

One assay addresses T1, GluR5-2a (Rattus norvegicus, UniProt P22756, DEL402-416).
T1 construct: expressed in transfected cells; host or cells: HEK-293-T/17
Kind of assay: Whole-cell patch clamp recordings, transfected HEK-293-T/17 cells, Example 2. Type of assay: cell-based. Particulars: for agonist activity: analog-evoked currents from GluR5-2a receptors (words): 1 s test application of the analog at a high concentration (10-100 μM); for recovery of glutamate-evoked currents after analog application, GluR5-2a: 30 μM analog; for inhibition of glutamate-evoked current, GluR5-2a: pre-application of 1 μM analog, 10 mM glutamate; for time constant for recovery of glutamate-evoked currents, τ: after 2.5 min application of 30 μM analog. As to the method: Cell Culture and Electrophysiology. HEK-293-T/17 cells were maintained in Dulbecco's modified Eagle's medium (DMEM) supplemented with 100 μg/mL penicillin, 100 μg/mL streptomycin, and 10% heat inactivated fetal bovine serum. One day before transfection, HEK-T/17 cells were plated at low density on glass coverslips coated with 100 μg/ml poly-D-lysine and 100 μg/ml collagen. Cells were transfected with receptor cDNAs ([…]) in combination with enhanced green fluorescent protein (eGFP) cDNA for visualization of transfected cells. Transfections were carried out with Fugene6 (Roche Applied Science) according to the manufacturer's protocol and used 2-3 days following transfection. Internal solution consisted of 110 mM CsF, 30 mM CsCl, 4 mM NaCl, 0.5 mM CaCl2, 10 mM HEPES, and 5 mM EGTA, and was adjusted to pH=7.3 with CsOH. The external solution contained 150 mM NaCl, 2.8 mM KCI, 2 mM CaCl2, 1 mM MgCl2, and 10 mM HEPES, adjusted to pH=7.3 with NaOH. Patch electrodes from thick-walled borosilicate glass (Warner Instruments, Hamden, Conn.) were pulled to a final resistance of 1.5 to 2.5 MO after fire polishing. […] To determine the pre-desensitization IC50 of selected analogs, several control glutamate (10 mM) applications were followed by a 2.5 minute application of various concentrations of 8-deoxy-neoDH, 9-deoxy-neoDH, or MSVIII-19, after which the analogs were co-applied with glutamate. A similar protocol was followed to measure the recovery of glutamate-evoked currents, with the exception that the analogs were not co-applied with glutamate. Whole cell patch clamp recordings were carried out using an Axopatch 200B amplifier (Axon Instruments). Data were analyzed with Origin 7.5 (OriginLab Corp.), and Prism4 (GraphPad Software Inc.); inhibition-response curves were plotted and fit with a one-site competition curve constrained to fixed minima (0) and maxima (100).
Because neoDH and its natural analog, dysiherbaine (DH), both act as KAR agonists, we tested each of the analogs for agonist activity using whole-cell patch clamp recordings. Application of saturating concentrations of glutamate (10 mM) to a transiently transfected HEK-293-T/17 cell was first done to obtain a rapidly activating and desensitizing control current; this was then followed by a test application of the analog at a high concentration (10-100 μM).
9-deoxy-neoDH and the di-deoxy antagonist, MSVIII-19, have very similar binding profiles on GluR5-2a and other subunits (Sanders et al., 2005), but both their functional activities and behavioral properties differ. 9-deoxy-neoDH elicits small but reproducible currents from GluR5-2a receptors (FIG. 8B), whereas MSVIII-19 behaves as an antagonist (Sanders et al., 2005). To further compare the activity of these compounds and the high-affinity agonist 8-deoxy-neoDH on GluR5-2a receptors, we determined their respective IC50s for pre-desensitization of the receptor (FIG. 9). Responses to 10 mM glutamate were elicited to determine the control current amplitudes for GluR5-2a expressing cells; receptors were then pre-desensitized with low concentrations of the analog (8-deoxy-neoDH or 9-deoxy-neoDH) before test co-applications with glutamate.
Several analogs, including the parent compounds DH and neoDH, induce a very stable, ligand-bound desensitized conformation of GluR5-2a and GluR6a receptors that occludes subsequent activation of the receptors for long periods of time. We measured the duration of the interaction of Group I analogs with GluR5-2a receptors by determining the time course of recovery of glutamate-evoked currents after application of the analogs (for 2.5 min) (FIG. 10). In FIG. 10A, traces on the left are representative control glutamate-evoked currents; traces on the right are glutamate-evoked currents ten minutes after exposure to 8-deoxy-neoDH, 9-deoxy-neoDH, or MSVIII-19 (each at 30 μM). […]
(In general: In patch-clamp work, channel activity is measured electrically.)

In the next assay the test system is mice. The conditions noted are these: Shoji et al., 2006, cited from earlier work; for ED50 seizure activity: i.c.v. injection, mice; for convulsant behavior, from the literature: i.c.v., Sasaki et al., 1999, Sakai et al., 2001a.
The next assay deals with T2, GluR1(i) (Rattus norvegicus, UniProt P19490).
T2 construct: expressed in transfected cells; host or cells: HEK-293-T/17
T2 sequence (P19490 19-907 isoform P19490-2 limits assumed): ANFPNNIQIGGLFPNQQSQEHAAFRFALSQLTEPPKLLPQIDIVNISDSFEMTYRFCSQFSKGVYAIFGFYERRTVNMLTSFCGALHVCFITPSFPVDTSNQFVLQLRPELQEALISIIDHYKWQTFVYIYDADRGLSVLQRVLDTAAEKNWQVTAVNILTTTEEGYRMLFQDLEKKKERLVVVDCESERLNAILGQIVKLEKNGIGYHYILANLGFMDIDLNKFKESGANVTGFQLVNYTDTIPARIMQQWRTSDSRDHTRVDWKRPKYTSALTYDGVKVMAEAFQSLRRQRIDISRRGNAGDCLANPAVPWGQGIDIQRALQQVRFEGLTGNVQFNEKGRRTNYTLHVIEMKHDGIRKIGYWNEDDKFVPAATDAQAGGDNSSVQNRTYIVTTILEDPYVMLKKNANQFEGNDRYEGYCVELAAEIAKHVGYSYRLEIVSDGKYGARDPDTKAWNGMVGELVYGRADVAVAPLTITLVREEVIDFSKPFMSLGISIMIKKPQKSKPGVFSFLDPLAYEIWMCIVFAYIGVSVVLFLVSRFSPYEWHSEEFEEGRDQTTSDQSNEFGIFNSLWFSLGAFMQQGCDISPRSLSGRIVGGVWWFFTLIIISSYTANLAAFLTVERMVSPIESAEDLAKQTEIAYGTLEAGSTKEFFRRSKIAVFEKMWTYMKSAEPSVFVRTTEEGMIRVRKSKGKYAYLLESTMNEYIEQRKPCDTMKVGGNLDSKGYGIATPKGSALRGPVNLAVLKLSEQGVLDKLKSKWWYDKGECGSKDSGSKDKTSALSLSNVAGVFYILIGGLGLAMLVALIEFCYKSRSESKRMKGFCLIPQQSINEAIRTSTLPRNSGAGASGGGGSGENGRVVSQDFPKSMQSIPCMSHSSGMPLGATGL
Kind of assay: Radioligand binding ([3H]AMPA displacement), HEK-293-T/17 membranes, Example 2. Particulars: Cheng-Prusoff. As to the method: (§1) Radioligand binding. Membrane preparations from HEK-293-T/17 cells were prepared and used in radioligand binding assays as described previously (Sanders et al., 2005). Unlabeled analogs were used to displace [3H]kainate (10-20 nM, PerkinElmer Life and Analytical Sciences, Boston, Mass.) or [3H]AMPA (20 nM, PerkinElmer Life and Analytical Sciences, Boston, Mass.) from KARs and AMPARs, respectively. Nonspecific binding was determined in the presence of 1 mM glutamate. After 1 hour incubation at 4° C., samples were harvested by rapid filtration onto Whatman GF/C membranes. Upon addition of scintillation fluid, membranes were incubated for 1 hour at room temperature. A Beckman LS5000TD scintillation counter was used for quantification (Beckman Coulter Inc., Fullerton, Calif.). Data were plotted and fit with a one-site competition curve with fixed minima and maxima using Prism 4 (GraphPad Software, Inc). Ki's were calculated with the Cheng-Prusoff equation using the determined IC5o values and the radioligand Kd. Data were plotted and fit with a one-site competition curve with fixed minima (0) and maxima (100) (Prism4, GraphPad Software, Inc.). Correlation analysis was performed with these binding data and the seizure activity of each analog, represented as ED50 values.
(§2) The pharmacological profiles of the Group I analogs, 8-deoxy-neoDH and 9-deoxyneoDH, were analyzed initially in radioligand binding experiments with expressed recombinant AMPA and kainate receptor subunits. Displacement of [3H]kainate from cell membranes with a range of analog concentrations yielded IC50 values that were then used to calculate Ki values for each analog/receptor combination. Both Group 1 analogs retained high affinity only for GluR5-2a KAR subunits (FIG. 8A). […] Weak binding to other KAR and AMPAR subunits was observed, with all Ki values estimated at >10 μM (n=3-5; Table 3, FIG. 8A).
(§3) For comparison, the Ki values for neoDH and MSVIII-19 are included in the table (Sanders et al., 2005). Removal of the C9 hydroxyl eliminated binding to all receptor subunits (Ki values estimated at >100 μM), with the exception of GluR5-2a KARs.

Another assay has as its target T3, GluR2(i) (Rattus norvegicus, UniProt P19491).
T3 construct: expressed in transfected cells; host or cells: HEK-293-T/17
Described as above. The conditions noted are these: Cheng-Prusoff. As for the experimental part: as §1, §2, §3

T1 sequence (P22756 with tags, fused parts or gaps isoform P22756-2 limits assumed, stated change not applied): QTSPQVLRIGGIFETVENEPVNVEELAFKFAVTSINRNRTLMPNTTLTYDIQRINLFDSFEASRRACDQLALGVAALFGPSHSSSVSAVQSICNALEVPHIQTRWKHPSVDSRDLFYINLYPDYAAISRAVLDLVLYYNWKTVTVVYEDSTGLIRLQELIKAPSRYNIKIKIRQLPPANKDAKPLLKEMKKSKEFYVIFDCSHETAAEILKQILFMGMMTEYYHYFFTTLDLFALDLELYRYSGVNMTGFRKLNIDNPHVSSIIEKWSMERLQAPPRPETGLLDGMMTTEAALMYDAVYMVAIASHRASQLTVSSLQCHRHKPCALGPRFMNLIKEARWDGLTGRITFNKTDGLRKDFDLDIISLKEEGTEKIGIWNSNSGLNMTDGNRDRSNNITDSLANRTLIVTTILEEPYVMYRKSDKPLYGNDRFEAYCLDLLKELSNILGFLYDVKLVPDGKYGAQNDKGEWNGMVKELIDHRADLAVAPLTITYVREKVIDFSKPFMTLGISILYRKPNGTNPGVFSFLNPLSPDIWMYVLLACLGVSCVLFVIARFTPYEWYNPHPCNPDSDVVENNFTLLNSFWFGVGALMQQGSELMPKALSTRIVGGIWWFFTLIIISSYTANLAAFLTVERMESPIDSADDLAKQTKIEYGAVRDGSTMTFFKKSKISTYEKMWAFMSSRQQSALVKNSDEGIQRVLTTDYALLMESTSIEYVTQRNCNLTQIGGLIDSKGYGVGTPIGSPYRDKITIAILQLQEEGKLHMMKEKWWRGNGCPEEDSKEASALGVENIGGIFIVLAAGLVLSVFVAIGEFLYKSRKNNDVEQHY
T3 sequence (P19491 22-883 isoform P19491-2 limits assumed): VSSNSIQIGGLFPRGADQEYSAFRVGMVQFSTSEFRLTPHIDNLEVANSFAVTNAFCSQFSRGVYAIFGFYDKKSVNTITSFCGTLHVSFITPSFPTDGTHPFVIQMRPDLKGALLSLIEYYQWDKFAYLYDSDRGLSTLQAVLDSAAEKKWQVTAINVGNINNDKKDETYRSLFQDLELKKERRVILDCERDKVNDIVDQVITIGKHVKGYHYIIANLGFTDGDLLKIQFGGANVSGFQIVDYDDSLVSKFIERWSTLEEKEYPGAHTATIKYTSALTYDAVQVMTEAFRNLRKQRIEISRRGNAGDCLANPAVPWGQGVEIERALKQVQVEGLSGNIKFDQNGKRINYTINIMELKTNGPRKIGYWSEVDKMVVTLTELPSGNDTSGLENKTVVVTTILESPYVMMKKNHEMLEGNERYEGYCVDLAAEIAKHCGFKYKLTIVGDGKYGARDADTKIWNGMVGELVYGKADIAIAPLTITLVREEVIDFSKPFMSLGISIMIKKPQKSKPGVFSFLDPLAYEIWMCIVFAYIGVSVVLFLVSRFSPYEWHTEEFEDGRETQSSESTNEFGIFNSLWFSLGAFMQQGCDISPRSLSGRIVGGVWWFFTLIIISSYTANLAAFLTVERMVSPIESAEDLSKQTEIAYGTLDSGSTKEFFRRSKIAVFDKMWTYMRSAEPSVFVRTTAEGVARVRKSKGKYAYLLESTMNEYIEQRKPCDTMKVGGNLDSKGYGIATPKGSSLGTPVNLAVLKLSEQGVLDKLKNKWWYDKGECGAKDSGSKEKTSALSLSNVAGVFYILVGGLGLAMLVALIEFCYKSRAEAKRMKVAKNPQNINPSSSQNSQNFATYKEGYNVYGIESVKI

A word on the Ki: it is a dissociation constant, usually derived from enzyme kinetics or from competition with a known ligand. Regarding `NC(CC1(C(=O)O)CC2OCC(O)C(O)C2O1)C(=O)O` (stereo not drawn) [8-epi-neoDH, 8-epi-neodysiherbaine], the “agonist activity: analog-evoked currents from GluR5-2a receptors (words)” value (“agonist activity: analog-evoked currents” below) is recorded as “elicited rapidly activating currents” at GluR5-2a and “elicited large desensitizing currents with variable kinetics” at GluR5-2a (listed as 8-epineoDH). Moreover, in the assay on mice, the ED50 seizure activity is listed as 283 pmol/mouse. Besides, the Ki on GluR1(i) (read-out: Ki GluR1(i)) worked out at 16 µM; on GluR2(i) (read-out: Ki GluR2(i)), 23 µM.

A word on the IC50: it is the concentration needed to halve the response being measured. For the compound `N[C@@H](C[C@]1(C(=O)O)C[C@H]2OC[C@@H](O)C[C@H]2O1)C(=O)O` [8-deoxy-neoDH], at GluR5-2a, the IC50 was determined as 0.000238 µM; the “recovery of glutamate-evoked currents after analog application, GluR5-2a” value (shortened to “recovery … after analog application, GluR5-2a”) is reported as “completely attenuated glutamate currents in response to glutamate for up to 15 min; also recorded: remained associated beyond the duration of the experiments”; the “agonist activity: analog-evoked currents” value is given as “elicited currents; also recorded: full agonist, or a highly efficacious partial agonist; also recorded: full agonists or highly efficacious partial agonists; also recorded: GluR5 agonists”; the “inhibition of glutamate-evoked current, GluR5-2a” value is given as “completely inhibited”. For the same compound, the ED50 seizure activity in the assay with mice is reported as 238 pmol/mouse. Also, the Ki on GluR1(i) (Ki GluR1(i)) was above 100 µM. For the same compound, the inhibitory constant (Ki) at GluR2(i) (Ki GluR2(i)) was above 100 µM.

For `N[C@@H](C[C@]1(C(=O)O)C[C@H]2OCC[C@@H](O)[C@H]2O1)C(=O)O` [9-deoxy-neoDH], on GluR5-2a, the “agonist activity: analog-evoked currents” value is “elicited currents; also recorded: very weak agonist; also recorded: GluR5 agonists”; the “time constant for recovery of glutamate-evoked currents, τ” value was 1.5 s; the “inhibition of glutamate-evoked current, GluR5-2a” value is on record as “inhibited but did not abolish”. The IC50 at GluR5-2a (2.5 min analog application, then co-application with 10 mM glutamate, read-out: IC50 for pre-desensitization of GluR5-2a receptors) is 0.151 µM. Besides, the ED50 seizure activity in the assay on mice is listed as 7.1 nmol/mouse. Also, on GluR1(i) (read-out: Ki GluR1(i)), the inhibition constant (Ki) was above 100 µM. In addition, the inhibition constant (Ki) on GluR2(i) (read-out: Ki GluR2(i)) was above 100 µM.

As to `N[C@@H](C[C@@]1(C(=O)O)CC2OCC(O)C(O)C2O1)C(=O)O` (single isomer, unassigned) [4-epi-neoDH, 4-epi-neodysiherbaine], at GluR5-2a, the “recovery … after analog application, GluR5-2a” value was “remained associated with the GluR5-2a receptor for many minutes” and the “agonist activity: analog-evoked currents” value is listed as “evoked small but detectable currents; also recorded: elicits large currents; also recorded: activates”. For the same compound, in the assay with mice, the ED50 seizure activity is given as 1.7 nmol/mouse and the “convulsant behavior, from the literature” value is listed as “weakly convulsant”. The inhibition constant (Ki) on GluR1(i) (read-out: Ki GluR1(i)) was above 30 µM. Besides, the inhibition constant (Ki) on GluR2(i) (read-out: Ki GluR2(i)) was above 30 µM.

In the case of `NC(CC1(C(=O)O)CC2OCC(O)C(O)C2O1)C(=O)O` (stereo not drawn) [9-epi-neoDH, 9-epi-neodysiherbaine], the “agonist activity: analog-evoked currents” value on GluR5-2a is “elicited rapidly activating currents; also recorded: elicited very small amplitude, weakly desensitizing currents; also recorded: very weak partial agonists”. In addition, in the assay with mice, the ED50 seizure activity is 8.6 nmol/mouse. Further, the inhibitory constant (Ki) on GluR1(i) (read-out: Ki GluR1(i)) and on GluR2(i) (read-out: Ki GluR2(i)) was above 100 µM in each case.

In the case of `NC(CC1(C(=O)O)CC2OCC(O)C(O)C2O1)C(=O)O` (stereo not drawn) [8,9-epi-neoDH, 8,9-epi-neodysiherbaine], the figures for the “agonist activity: analog-evoked currents” value on GluR5-2a and on GluR5-2a (listed as 8,9epi-neoDH) were “failed to activate GluR5-2a-expressing cells” and “failed to elicit a detectable current”, respectively. Besides, the “inhibition of glutamate-evoked currents in GluR5-2a-expressing cells” value at GluR5-2a (high test concentrations, data not shown) is reported as “modestly inhibited”. In addition, the inhibition constant (Ki) at GluR1(i) (read-out: Ki GluR1(i)) and on GluR2(i) (read-out: Ki GluR2(i)) was above 100 µM in each case.

`N[C@@H](C[C@]1(C(=O)O)C[C@H]2OCCC[C@H]2O1)C(=O)O` [MSVIII-19, 8,9-dideoxy-neoDH]: on GluR5-2a, the “time constant for recovery of glutamate-evoked currents, τ” value is on record as 1.4 s. Besides, in the assay with mice, the ED50 seizure activity is on record as 6.3 nmol/mouse and the “convulsant behavior, from the literature” value was “sub-seizure stereotyped behavior followed by unresponsiveness”.

`NC(CC1(C(=O)O)CC2OCC(F)C(O)C2O1)C(=O)O` (stereo not drawn) [9-F-8-epi-neoDH]: the “agonist activity: analog-evoked currents” value at GluR5-2a is given as “elicited rapidly activating currents; also recorded: elicited large desensitizing currents with variable kinetics”. The ED50 seizure activity in the assay on mice was 374 pmol/mouse. Besides, the Ki at GluR1(i) (read-out: Ki GluR1(i)) and on GluR2(i) (read-out: Ki GluR2(i)) was above 100 µM in each case.

Consider `N[C@@H](C[C@@]1(C(=O)O)CC2OCC(O)C(O)C2O1)C(=O)O` (single isomer, unassigned) [2,4-epi-neoDH, 2,4-epi-neodysiherbaine], for which the “recovery … after analog application, GluR5-2a” value on GluR5-2a was “remained associated with the GluR5-2a receptor for many minutes”. For the same compound, the 50% inhibitory concentration (IC50) at GluR5-2a (10 mM glutamate in continued presence of analog, read-out: IC50 inhibition of glutamate-evoked currents, GluR5-2a) was 7.5 µM. Further, the “agonist activity: analog-evoked currents” value on GluR5-2a is reported as “failed to elicit detectable current; also recorded: antagonist (or possibly a very weak partial agonist); also recorded: fails to activate GluR5 or GluR6 receptors, even at 100 μM”; at GluR5-2a (listed as 2,4-epineoDH), “fails to activate”. Besides, the ED50 seizure activity in the assay with mice and with mice (listed as 2,4epi-neoDH) was 11.4 nmol/mouse each time. In addition, in the assay with mice, the “convulsant behavior, from the literature” value is given as “weakly convulsant”. In addition, the Ki on GluR1(i) (read-out: Ki GluR1(i)) and on GluR2(i) (read-out: Ki GluR2(i)) was above 100 µM throughout.

The values are drawn from patent US7973075B2, “Kainate receptor-selective epimeric analogs of dysiherbaine” (priority 2007, dated 2011).
